{"source": "patent US20020151467A1", "about": "(priority 2000, published 2002)", "type_in_all_cases": "in vivo", "key": {"[1]": {"system": "nondiabetic rats", "assay": "Transdermal insulin (Dermulin) vs intraperitoneal insulin injection, blood glucose in rats", "conditions": "for Percent of glucose reduction: Group 4: intraperitoneal 12.5 u insulin", "protocol": "All rats weighed 50-80 gms, aged 1 month. Group 1 (control—placebo): 6 rats, Group 2 (Dermulin™, 12.5 u): 5 rats, Group 3 (Dermulin™, 25 u): 5 rats, Group 4 (intraperitoneal injection): 5 rats.\n(§1) All rats were fasted 2 hrs before experiments. They were lightly anesthesized by ether. Neck skin was dissected and jugular vein was exposed. 0.1 ml of blood was drawn at time 0, 5, 10, 15, 30, 60, 90, 120, 150, 180, 210, 240, 270, 300 minutes for glucose measurement by Abbott's Precision glucose monitor. Hair was shaved from the abdomen. Group 2 and Group3 had 12.5 u and 25 u of Dermulin™ applied to the abdominal skin respectively.\nAll data were analyzed using SAS system, Version 6.12. in 2 ways: 1) Simultaneous comparison of multiple groups by Dunnett's t test at 5% significance level. 2) Comparison of slopes of the glucose reduction rate by repeated measures analysis of variance method by the “Mixed Procedure” of the SAS system software."}, "[2]": {"system": "nondiabetic rats", "assay": "Hypoglycemic efficacy of oral insulin (Musulin) compared to subcutaneous and intraperitoneal injections in rats", "conditions": "1.67 unit every 5 minutes", "protocol": "All rats weighed 50-80 gms, age of the rats was 1 month. Group 1 (control—placebo): 6 rats; Group 2 (Musulin™): 6 rats; Group 3 (Musulin™): 5 rats; Group 4 (Musulin™): 5 rats; Group 5 (intraperitoneal injection): 5 rats; and Group 6 (subcutaneous injection): 5 rats. All rats were fasted 2 hrs before experiments. They were lightly anesthesized by ether. Neck skin was dissected and the jugular vein was exposed. 0.1 ml of blood was drawn at times 0, 5, 10,15, 30, 60, 90, 120, 150, 180, 210, 240, 270, 300 minutes for glucose measurement by Abbott's Precision glucose monitor. In order to ensure the maximal exposure and absorption of Musulin™ in the rats' tiny oral cavities, the rats were fed constant amounts at preset time periods. […] Group 3 received 3.33 units and Group 4 received 6.67 units every 5 minutes.\nAll data were analysed using SAS system, Version 6.12. in 2 ways: 1) Simultaneous comparison of multiple groups by Dunnett's t test at 5% significance level. 2) Comparison of slopes of the glucose reduction rate by repeated measures analysis of variance method by the “Mixed Procedure” of the SAS system software."}, "[3]": {"system": "nondiabetic rats", "assay": "Transdermal insulin (Dermulin) vs subcutaneous insulin injection, blood glucose in rats", "conditions": "for Percent of glucose reduction compared to initial levels: Group 4: subcutaneous 12.5 u insulin", "protocol": "All rats weighed 50-80 gms, aged 1 month. Group 1 (control—placebo): 6 rats, Group 2 (Dermulin™, 12.5 u): 5 rats, Group 3 (Dermulin™, 25 u): 5 rats, Group 4 (subcutaneous injection): 5 rats.\nas §1, with “Group 3” for “Group3”\nAll data were analyzed using SAS system, Version 6.12. in 2 ways: 1) Simultaneous comparison of multiple groups by Dunnett's t test at 5% significance level. 2) Comparison of slopes of the glucose reduction rate by repeated measures analysis of variance method by the” Mixed Procedure” of the SAS system software."}, "[4]": {"conditions": "Group 4: single intraperitoneal injection of 12.5 u insulin"}, "[5]": {"conditions": "Group 5: intraperitoneal insulin injection"}, "[6]": {"conditions": "Group 4: single subcutaneous injection of 12.5 u insulin"}, "[7]": {"conditions": "Group 6: subcutaneous insulin injection"}}}
{"substance": "intraperitoneal injection: injection control: insulin given intraperitoneally", "values": [{"measurement": "Percent of glucose reduction", "setting": "[1]; at 60 minutes", "result": "26.1 (s.d. 13.4) Percent"}, {"measurement": "Percent of glucose reduction", "setting": "[1]; at 120 minutes", "result": "16.5 (s.d. 13) Percent"}, {"measurement": "Percent of glucose reduction", "setting": "[1]; at 180 minutes", "result": "25.8 (s.d. 14.1) Percent"}, {"measurement": "Percent of glucose reduction", "setting": "[1]; at 300 minutes", "result": "27.8 (s.d. 33.6) Percent"}, {"measurement": "Rate of glucose reduction at the slope", "setting": "[1]; [4]", "result": -0.5, "unit": "mg/min"}, {"measurement": "Statistically significant onset of action", "setting": "[1]; [4]", "result": 5, "unit": "min"}, {"measurement": "Death from hypoglycemia within 300 minutes", "setting": "[2]; [5]", "result": 80, "unit": "%"}, {"measurement": "Rate of glucose reduction at the maximal slope", "setting": "[2]; [5]", "result": -0.54, "unit": "mg/min"}, {"measurement": "Statistically significant onset of action", "setting": "[2]; [5]", "result": 10, "unit": "min"}, {"measurement": "time for 50% rats to achieve 50% glucose reductions", "setting": "[2]; [5]", "result": 13, "unit": "min"}, {"measurement": "Percent mean reduction of glucose compared to initial levels", "setting": "[2]; Group 5: intraperitoneal insulin injection, at 60 minutes", "result": "30.4 (s.d. 3.8) Percent"}, {"measurement": "Percent mean reduction of glucose compared to initial levels", "setting": "[2]; Group 5: intraperitoneal insulin injection, at 120 minutes", "result": "18.7 (s.d. 15.2) Percent"}, {"measurement": "Percent mean reduction of glucose compared to initial levels", "setting": "[2]; Group 5: intraperitoneal insulin injection, at 300 minutes", "result": "0 (s.d. 0) Percent"}]}
{"substance": "subcutaneous injection: injection control: insulin (Humalog) by subcutaneous injection", "values": [{"measurement": "Rate of glucose reduction at the slope between 30-120 min.", "setting": "[3]; [6]", "result": -0.5, "unit": "mg/min"}, {"measurement": "Statistically significant onset of action", "setting": "[3]; [6]", "result": 5, "unit": "min"}, {"measurement": "Percent of glucose reduction compared to initial levels", "setting": "[3]; at 60 minutes", "result": "28 (s.d. 13.4) Percent"}, {"measurement": "Percent of glucose reduction compared to initial levels", "setting": "[3]; at 120 minutes", "result": "21.9 (s.d. 13) Percent"}, {"measurement": "Percent of glucose reduction compared to initial levels", "setting": "[3]; at 180 minutes", "result": "17.2 (s.d. 14.1) Percent"}, {"measurement": "Percent of glucose reduction compared to initial levels", "setting": "[3]; at 300 minutes", "result": 0, "unit": "%"}, {"measurement": "Death from hypoglycemia within 300 minutes", "setting": "[2]; [7]", "result": 100, "unit": "%"}, {"measurement": "Rate of glucose reduction at the maximal slope", "setting": "[2]; [7]", "result": -0.51, "unit": "mg/min"}, {"measurement": "Statistically significant onset of action", "setting": "[2]; [7]", "result": 10, "unit": "min"}, {"measurement": "time for 50% rats to achieve 50% glucose reductions", "setting": "[2]; [7]", "result": 15, "unit": "min"}, {"measurement": "Percent mean reduction of glucose compared to initial levels", "setting": "[2]; Group 6: subcutaneous insulin injection, at 60 minutes", "result": "39.8 (25.5) Percent"}, {"measurement": "Percent mean reduction of glucose compared to initial levels", "setting": "[2]; Group 6: subcutaneous insulin injection, at 120 minutes", "result": "25.5 (s.d. 31.7) Percent"}, {"measurement": "Percent mean reduction of glucose compared to initial levels", "setting": "[2]; Group 6: subcutaneous insulin injection, at 300 minutes", "result": 41.1, "unit": "%"}]}
